Measured values: PMC10372922 (Acta Pharmaceutica Sinica. B, 2023)

Target: T1, TGF-β receptor type-1 (TGFβR1) (Homo sapiens, UniProt P36897)
T1 sequence (P36897 200-503 limits assumed): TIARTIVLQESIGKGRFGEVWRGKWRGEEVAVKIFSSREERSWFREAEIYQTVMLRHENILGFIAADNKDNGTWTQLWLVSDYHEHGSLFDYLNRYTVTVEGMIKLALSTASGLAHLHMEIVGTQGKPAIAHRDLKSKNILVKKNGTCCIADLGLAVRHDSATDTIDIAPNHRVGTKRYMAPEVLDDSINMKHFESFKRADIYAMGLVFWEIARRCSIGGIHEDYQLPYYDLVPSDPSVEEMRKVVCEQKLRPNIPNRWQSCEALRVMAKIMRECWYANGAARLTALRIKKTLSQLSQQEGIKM
Experiment: SPR
Assay type: binding

CC(=O)O[C@@H]1C[C@H](O)[C@@]23COC(O)C1(C)[C@@H]2C[C@@H](O)[C@@]1(C)[C@@H]2C(=O)C[C@@H](c4ccoc4)[C@]2(C)[C@@H](OC(C)=O)C(=O)[C@@H]13 (stereo partly shown) [ITSN, Isotoosendanin]
Kd: 24 µM
